According to US9889099B2, “Method and composition for enhancing milk production” (LAND O'LAKES, INC., priority 1999, dated 2018):

Tested on: lactating cows
Test: Example 1: feeding lactating cows control ration plus about 100 g sorbitol per day, 28 day test period
Type: in vivo, Holstein cows
From the text: In this example, twenty Holstein cows averaging about thirty days in milk each, and thus in early lactation, were arranged in a randomized complete block design. Ten of the twenty cows were orally fed a control ration, and the other ten cows were orally fed a test ration that consisted of the control ration plus about 100 grams of sorbitol per day per cow. The cows were blocked by parity milk production, based upon the level of milk production by individual cows, after being in milk for fifteen to twenty days. After being blocked by parity milk production, the cows were randomly allotted to the control ration feeding or to the test ration feeding. The components of the control ration used in this example are shown in Table 1: The control ration was placed in the feeding troughs of the cattle once daily in the morning. When the test ration was to be provided to the test cattle, sorbitol was top dressed and lightly mixed into the control ration in the feeding trough of each cow being supplied with the test ration dosage of about 100 grams of sorbitol per cow per day, about one hour after the control ration was placed in the feeding trough. Then, the control ration and the test ration were lightly mixed in front of the cows six times per day to encourage additional feed ingestion by the cattle. Leftover rations from the previous day's feeding were collected and weighed from each feeding trough prior to feeding the test cattle the next day. The cows received a sufficient amount of the control ration to ensure that at least about ten weight percent, based upon the amount of control ration provided at the beginning of each day, remained per day for each test cow. The amount of sorbitol that was top dressed in the control ration to form the test ration was adjusted upward to account for the excess of control ration provided to ensure that the cows ingested the test ration dosage of about 100 grams of sorbitol per cow per day. Feed refusals were measured daily, and water was supplied ad libitum. […] Each cow was milked three times daily and the weight of produced milk was recorded at each milking. The milk was sampled once per day (⅓ of the sample volume from each milking) and was analyzed for protein, fat, lactose, and total solids, in accordance with the property determination and characterization techniques presented above. The milk production and milk component data was analyzed using the general linear model (GLM) statistical procedure of SAS® statistical analysis software for a randomized, complete block design that included both the particular feed regimen and the week of the test period in the model statement. […] Additionally, all data was analyzed to determine the mean of the data for each variable under consideration over the entire experimental period. […]

OC[C@@H](O)[C@@H](O)[C@H](O)[C@@H](O)CO [sorbitol]
Dry Matter Intake (about 100 g sorbitol/day/cow mixed with control ration, mean over 28 days, control 47.2, P 0.54): 45.6 pounds/day/cow | Milk Production (about 100 g sorbitol/day/cow mixed with control ration, mean over 28 days, control 88.9, P 0.02): 93.5 pounds/day/cow | difference in dry matter intake between control ration and test ration (FIG. 1) (about 100 g sorbitol/day/cow, P 0.54): statistically insignificant | daily milk production at each weekly data point versus control cows (FIG. 2) (about 100 g sorbitol/day/cow, weekly means over four weeks): significant increase
